Literature values as cited in publication PMC7797289 (Drug Design, Development and Therapy, 2021).

Tests used:
breast cancer metastasis = settings: in vivo test
uPA = settings: read-out: Ki (inhibitory constant); uPA inhibitor
lung cancer = lung cancer animal model

Ki (uPA) [nM] | Structure (SMILES) | breast cancer metastasis (breast cancer metastasis) | anti-tumor efficacy (lung cancer)
 | CCCNC(=O)[C@H]1O[C@@H]1C(=O)N[C@H](C(=O)N1CCC[C@H]1C(=O)O)[C@@H](C)CC [CA-074] | reduced breast cancer metastasis | 
 | CN(C)C(=O)[C@H](Cc1ccccc1)NC(=O)[C@H]1O[C@@H]1C(=O)NCCc1ccccn1 [CLIK-148] | reduced breast cancer metastasis | 
20 | N=C(N)c1ccc(CNC(=O)[C@H](CO)NC(=O)[C@@H](CO)NS(=O)(=O)Cc2ccccc2)cc1 [CJ-463, benzylsulfonyl-D-Ser-Ser-4- amidinobenzylamide] |  | good anti-tumor efficacy
